According to US20200040025A1, “URIDINE NUCLEOSIDE DERIVATIVES, COMPOSITIONS AND METHODS OF USE” (Tufts University, priority 2016, published 2020):

What follows are compounds tested against T1, P2Y6 receptor (Homo sapiens, UniProt Q15077) (assay: Activation of P2Y6 receptor: receptor-induced Ca2+ changes measured with fluo-4). Conditions: sodium salts of the test compounds; 1321N1 human astrocytoma cells expressing P2Y6; fluo-4 Ca2+ fluorescence; nonlinear curve fit; read-out: EC50 of synthetic compounds for activation of P2Y6 receptor.
T1 construct: expressed in transfected cells; host or cells: 1321N1 human astrocytoma cells
Type: cell-based
Procedure: Synthetic compounds were tested for activation of P2Y6 receptor by measuring receptor induced Ca^2+ changes with the fluorescent Ca^2+ indicator fluo-4. 1321N1 human astrocytoma cell lines either expressing P2Y2, P2Y4 or P2Y6. Receptors were plated into 24-well plates. Two days after plating, fluorometric measurements were made and responses of cells to a serial dilution of the sodium salts of the test compounds were determined. P2Y6 receptor mediated Ca^2+ fluorescent change was determined by normalized accumulation of fluorescent change of 3 timepoints after compound administration subtracted by value from ACSF control. Changes in fluorescent intensity were plotted corresponding to compound concentration in GraphPad.

T1 sequence (Q15077 whole entry): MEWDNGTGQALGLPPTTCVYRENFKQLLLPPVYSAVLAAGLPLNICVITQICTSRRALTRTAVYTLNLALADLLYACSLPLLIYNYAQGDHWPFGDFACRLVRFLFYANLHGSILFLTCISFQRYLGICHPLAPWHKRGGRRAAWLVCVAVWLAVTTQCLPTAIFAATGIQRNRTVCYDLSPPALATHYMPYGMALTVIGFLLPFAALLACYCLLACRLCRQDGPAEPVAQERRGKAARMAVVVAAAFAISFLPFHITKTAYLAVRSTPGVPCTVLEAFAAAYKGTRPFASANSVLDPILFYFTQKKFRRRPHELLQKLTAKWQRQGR

SMILES | EC50
O=c1ccn([C@@H]2O[C@H](COP(=O)(O)OP(=O)(O)O)C(O)C2O)c(=O)n1Cc1ccc(-c2ccccc2)cn1 (stereo partly drawn) [Compound 29] | < 500 nM
O=c1ccn([C@@H]2O[C@H](COP(=O)(O)OP(=O)(O)O)C(O)C2O)c(=O)n1Cc1cccc(-c2ccccc2)n1 (stereo partly drawn) [Compound 30] | 1000 to 2000 nM
O=c1ccn([C@@H]2O[C@H](COP(=O)(O)OP(=O)(O)O)C(O)C2O)c(=O)n1Cc1ncccc1-c1ccccc1 (stereo partly drawn) [Compound 31] | > 2000 nM
O=c1ccn([C@@H]2O[C@H](COP(=O)(O)OP(=O)(O)O)C(O)C2O)c(=O)n1Cc1cc(-c2ccncc2)ccn1 (stereo partly drawn) [Compound 32] | 1000 to 2000 nM
O=c1ccn([C@@H]2O[C@H](COP(=O)(O)OP(=O)(O)O)C(O)C2O)c(=O)n1Cc1cc(-c2ccccn2)ccn1 (stereo partly drawn) [Compound 34] | 500 to 1000 nM
O=c1ccn([C@@H]2O[C@H](COP(=O)(O)OP(=O)(O)O)C(O)C2O)c(=O)n1Cc1cc(Cc2ccccc2)ccn1 (stereo partly drawn) [Compound 35] | < 500 nM
O=c1ccn([C@@H]2O[C@H](COP(=O)(O)OP(=O)(O)O)C(O)C2O)c(=O)n1Cc1cc(Oc2ccccc2)ccn1 (stereo partly drawn) [Compound 36] | < 500 nM
O=c1ccn([C@@H]2O[C@H](COP(=O)(O)OP(=O)(O)O)C(O)C2O)c(=O)n1Cc1cc(Nc2ccccc2)ccn1 (stereo partly drawn) [Compound 37] | 500 to 1000 nM
O=c1ccn([C@@H]2O[C@H](COP(=O)(O)OP(=O)(O)O)C(O)C2O)c(=O)n1Cc1cc(C2CCCC2)ccn1 (stereo partly drawn) [Compound 38] | 500 to 1000 nM
O=c1ccn([C@@H]2O[C@H](COP(=O)(O)OP(=O)(O)O)C(O)C2O)c(=O)n1Cc1cc(C2CCCCC2)ccn1 (stereo partly drawn) [Compound 39] | 500 to 1000 nM
O=c1ccn([C@@H]2O[C@H](COP(=O)(O)OP(=O)(O)O)C(O)C2O)c(=O)n1Cc1cc(N2CCCCC2)ccn1 (stereo partly drawn) [Compound 40] | > 2000 nM
O=c1ccn([C@@H]2O[C@H](COP(=O)(O)OP(=O)(O)O)C(O)C2O)c(=O)n1Cc1cccc(-c2ccccc2)c1 (stereo partly drawn) [Compound 41] | < 500 nM
O=c1ccn([C@@H]2O[C@H](COP(=O)(O)OP(=O)(O)O)C(O)C2O)c(=O)n1Cc1ccc(-c2ccccc2)s1 (stereo partly drawn) [Compound 42] | < 500 nM
O=c1ccn([C@@H]2O[C@H](COP(=O)(O)OP(=O)(O)O)C(O)C2O)c(=O)n1Cc1ncc(-c2ccccc2)s1 (stereo partly drawn) [Compound 43] | < 500 nM
O=c1ccn([C@@H]2O[C@H](COP(=O)(O)OP(=O)(O)O)C(O)C2O)c(=O)n1Cc1cnc(-c2ccccc2)s1 (stereo partly drawn) [Compound 44] | 1000 to 2000 nM
O=c1ccn([C@@H]2O[C@H](COP(=O)(O)OP(=O)(O)O)C(O)C2O)c(=O)n1Cc1ncc(-c2ccccc2)o1 (stereo partly drawn) [Compound 45] | < 500 nM
O=c1ccn([C@@H]2O[C@H](COP(=O)(O)OP(=O)(O)O)C(O)C2O)c(=O)n1Cc1cnc(-c2ccccc2)o1 (stereo partly drawn) [Compound 46] | 500 to 1000 nM
O=c1ccn([C@@H]2O[C@H](COP(=O)(O)OP(=O)(O)O)C(O)C2O)c(=O)n1Cc1ccc(-c2ccccc2)o1 (stereo partly drawn) [Compound 47] | < 500 nM
